Data set [1] relates to subjects with eosinophilic chronic rhinosinusitis with nasal polyps. As to conditions: cited from earlier work; for total polyp score (TPS), mean value: baseline 5.29.
For data set [2], the system named is moderate to severe asthma. In words: Phase II dose finding study in moderate to severe asthma (EXHALE).
In data set [3] the test system is Chronic rhinosinusitis with nasal polyps. As to conditions: in vivo; cited from earlier work.
[4] abbreviates: 150 mg twice daily, 6 month trial.
The mark [5] stands for this setting: 150 mg twice daily, 12 subjects with a history of asthma.

We go through 2 molecules from patent US20250205206A1, “USE OF DEXPRAMIPEXOLE FOR THE TREATMENT OF INADEQUATELY CONTROLLED MODERATE TO SEVERE ASTHMA” (Areteia Therapeutics, Inc., priority 2023, published 2025).

Where two headings read alike, the source gives them in different places.

Turning to `CCCN[C@@H]1CCc2nc(N)sc2C1` [dexpramipexole, (6R)-2-amino-4,5,6,7-tetrahydro-6-(propylamino)benzothiazole], the “total polyp score (TPS), mean value” in data set [1] (150 mg twice daily, 3 months) is given as 5.50. Also, in data set [1] (setting [4]), the “SNOT-22 (rhinosinusitis symptoms)” value is given as “not improved”, the “Sniffin Sticks olfaction test” value is on record as “not improved” and the “sinus CT score” value is “not improved”. The “total polyp score (TPS), mean value” in data set [1] (150 mg twice daily, 6 months) was 5.42. Further, in data set [1] (setting [5]), the ACQ6 value entry is “unchanged” and the FEV1 value result is “unchanged”. In data set [1] (dexpramipexole 150 mg twice daily, after 6 months, 16 subjects), the “lowering of the AEC (blood absolute eosinophil count)” value is 94%. Also, in data set [2] (Phase II, compared with placebo), the “safety and tolerability profile” value is “tolerability profile of dexpramipexole in this Phase II study was similar to”. Also, the “eosinophils in blood and airways” value in data set [2] (Phase II, moderate to severe asthma) is “significant, dose-dependent, and durable reductions”. Moreover, in data set [2] (across the dose groups at various timepoints), the “placebo-corrected change from baseline in pre-bronchodilator (pre-BD) FEV1” value is recorded as “clinically meaningful, placebo-corrected, change from baseline in pre-”.

B1: mepolizumab: eosinophil lowering drug; monoclonal antibody administered subcutaneously for asthma (antibody, chains of the INN, looked up, V domains shown)
VH: QVTLRESGPALVKPTQTLTLTCTVSGFSLTSYSVHWVRQPPGKGLEWLGVIWASGGTDYNSALMSRLSISKDTSRNQVVLTMTNMDPVDTATYYCARDPPSSLLRLDYWGRGTPVTVSS
VL: DIVMTQSPDSLAVSLGERATINCKSSQSLLNSGNQKNYLAWYQQKPGQPPKLLIYGASTRESGVPDRFSGSGSGTDFTLTISSLQAEDVAVYYCQNVHSFPFTFGGGTKLEIK
Turning to B1, in data set [3], the “efficacy in chronic rhinosinusitis with nasal polyps” value is “have shown efficacy”.
